Patent US20250312469A1 (CANGET BIOTEKPHARMA, priority 2024, published 2025)

How the values were obtained:
in vivo = conditions: female, SCID, mouse; for Tmax / half-life: po
USP2a [1] = target: T1, USP2a (Homo sapiens, UniProt O75604); experiment: ITC, Flag-USP2a; format: binding; set-up: host or cells: HEK293T
T1 sequence (O75604 1-605): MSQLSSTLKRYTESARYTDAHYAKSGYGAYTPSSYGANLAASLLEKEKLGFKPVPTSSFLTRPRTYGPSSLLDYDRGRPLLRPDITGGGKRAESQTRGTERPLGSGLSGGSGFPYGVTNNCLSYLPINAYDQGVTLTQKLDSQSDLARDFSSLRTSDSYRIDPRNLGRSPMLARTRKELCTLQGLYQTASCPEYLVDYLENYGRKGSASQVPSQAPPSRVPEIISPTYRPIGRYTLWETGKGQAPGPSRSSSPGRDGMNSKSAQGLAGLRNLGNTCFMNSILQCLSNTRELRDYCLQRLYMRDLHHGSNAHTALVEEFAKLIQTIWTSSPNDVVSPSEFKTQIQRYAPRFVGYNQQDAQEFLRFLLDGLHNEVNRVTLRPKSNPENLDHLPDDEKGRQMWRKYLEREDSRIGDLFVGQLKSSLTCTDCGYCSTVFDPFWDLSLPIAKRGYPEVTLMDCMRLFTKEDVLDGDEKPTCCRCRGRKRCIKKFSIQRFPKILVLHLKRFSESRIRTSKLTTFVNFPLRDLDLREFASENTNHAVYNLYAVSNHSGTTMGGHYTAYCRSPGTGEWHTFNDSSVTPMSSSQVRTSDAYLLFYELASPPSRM
Text: Purification of Flag-tagged DDX5 (Flag-DDX5), USP2a (Flag-USP2), UbE2T (Flag-(bE2T) and topoisomerase 1 (Top1) (Flag-Top1) proteins: Flag-DDX5, Flag-USP2, Flag-UbE2T and Flag-Topl proteins were purified from the protein expression vector-transfected HEK293T cells by using the FLAG® M Purification Kit for mammalian expression systems (CELLMM2-IKT, Sigma). Briefly, sub-confluent populations of HEK293T cells were transfected with expression vectors for Flag-DDX5, Flag-USP2, Flag-UbE2T and Flag-Top1 (OriGene) using Lipofectamine 2000 (Invitrogen) as per the manufacturer's instructions. After 72h of transfection, cells were lysed in Cell Lytic M lysis reagent (Sigma Cat #C2978) containing a protease inhibitor cocktail. […]
Replacement of the Tris-HCl buffer with the PBS buffer for purified proteins for drug-protein binding analyses using isothermal titration calorimetry (ITC): After the purified proteins were eluted from the agarose resin with 3×flag peptide, the same purified protein samples from different batches were combined. […] The PBS-resuspended protein samples were recovered from the reservoir and the protein concentrations were determined using the nano-drop reader (Bio-Rad) and BCA Protein Assay (Thermo/Pierce) for double-making sure the concentration. […]

[2] = PK after single oral dose in tumor bearing mice
USP2a [3] = target: T1, USP2a; experiment: Cell-based polyUb/MdmX and USP2a mRNA/protein analysis in PCa cells; set-up: purchased Invitrogen ProtoArray Human Protein Microarray v5.0
[4] = HT29 tumor, single oral dose […]
[5] = SW620 tumor, single oral dose […]
[6] = mouse plasma, single oral dose […]

For `CCC1(O)C(=O)OCc2c1cc1n(c2=O)Cc2cc3cc4c(cc3nc2-1)OCO4` (stereo not shown) [FL118], the Tmax (in vivo; HT29 tumor) was 1 h, the half-life (in vivo; HT29 tumor) was 4.24 h and the Tmax (in vivo; SW620 tumor) was 1 h. For the same molecule, the half-life (in vivo; SW620 tumor) was 2.99 h, the bioavailability (in vivo; plasma, oral) was 84.6% and the Tmax (in vivo; plasma) was 0.5 h. For the same molecule, the half-life (in vivo; plasma) was 5.12 h, the Kd (USP2a [1]) was 52.3 nM and the Cl [2, 4] was 8,440 g/hr/kg. For the same molecule, the Tmax [2, 4] was 1.00 h, the VD [2, 4] was 51,700 g/kg and the t1/2 [2, 4] was 4.24 h. The Cl ([2]; HT29 tumor, p.o. […]) was 8,440 g/hr/kg, the VD ([2]; HT29 tumor, p.o. […]) was 51,700 g/kg and the Cl [2, 5] was 6,710 g/hr/kg. The Tmax [2, 5] was 1.00 h, the VD [2, 5] was 28,900 g/kg and the t1/2 [2, 5] was 2.99 h. The Cl ([2]; SW620 tumor, p.o. […]) was 6,710 g/hr/kg, the VD ([2]; SW620 tumor, p.o. […]) was 28,900 g/kg and the “concentration that can be reached in cancer cells” value ([2]; from the PK studies) was ≤ 25 nM. For the same molecule, the Cl [2, 6] was 17,000 mL/hr/kg, the Tmax [2, 6] was 0.500 h and the VD [2, 6] was 126,000 mL/kg. The t1/2 [2, 6] was 5.12 h, the “FL118 concentration, individual mice” value ([2]; plasma, 1.0 h, single oral dose […]) was 19.1 ng/mL and the “FL118 concentration, individual mice” value ([2]; plasma, 4.0 h, single oral dose […]) was 4.78 ng/mL. For the same molecule, the Cl ([2]; plasma, p.o. […]) was 17,000 mL/hr/kg, the VD ([2]; plasma, p.o. […]) was 126,000 mL/kg and the “USP2a mRNA and protein level” value (USP2a [3]) was “USP2a increases”. For the same molecule, the “polyUb-mediated MdmX degradation in cells” value (USP2a [3]) was “promotes polyUb-mediated MdmX degradation”.
